Measured values as given in PubChem BioAssay (NCI).
Values joined by “and” are separate entries in the source; they are usually repeats but may differ in a detail not shown here. Equal values may be shown once.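 Cells were grown in 96-well plates and exposed to each compound for 48 hours at five concentrations; endpoints were interpolated linearly between bracketing concentrations, or set to the highest concentration if not reached. The concentration for 50% growth inhibition is given as GI50. The concentration for full growth arrest is given as TGI.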

Key:
Assay in all cases: DTP human tumour cell line panel, 48 h
CAKI-1 renal = system: CAKI-1 renal
HOP-92 NSCLC = system: HOP-92 NSCLC
HT29 colon = system: HT29 colon
IGROV1 ovarian = system: IGROV1 ovarian
SF-295 CNS = system: SF-295 CNS
SF-539 CNS = system: SF-539 CNS
SN12C renal = system: SN12C renal
TK-10 renal = system: TK-10 renal
U251 CNS = system: U251 CNS
UO-31 renal = system: UO-31 renal

Compound	GI50 (CAKI-1 renal)	TGI (CAKI-1 renal)	GI50 (HOP-92 NSCLC)	TGI (HOP-92 NSCLC)	GI50 (HT29 colon)	TGI (HT29 colon)	GI50 (IGROV1 ovarian)	TGI (IGROV1 ovarian)	GI50 (SF-295 CNS)	TGI (SF-295 CNS)	GI50 (SF-539 CNS)	TGI (SF-539 CNS)	GI50 (SN12C renal)	TGI (SN12C renal)	GI50 (TK-10 renal)	TGI (TK-10 renal)	GI50 (U251 CNS)	TGI (U251 CNS)	GI50 (UO-31 renal)	TGI (UO-31 renal)
COc1cc2cc(Oc3ccc(NC(=O)Nc4ccc(Cl)c(Cl)c4)cc3)c(C)nc2cc1OC	2.12 µM	6.65 µM	2.04 µM	4.88 µM	2.34 µM	4.89 µM	5.61 µM	46.1 µM	1.96 µM	6.08 µM	5.18 µM	22.3 µM	3.39 µM	20.5 µM	3.46 µM	9.18 µM	2.19 µM	7.26 µM	3.44 µM	12.6 µM
CSc1ccc2c(c1)C(N1CCN(C)CC1)Cc1ccccc1S2 (stereo not drawn)	1.62 µM	13.3 µM and 3.33 µM	0.393 µM	7.77 µM and 2.62 µM	1.8 µM	6.84 µM and 3.65 µM	–	7.3 µM and 4.91 µM	1.84 µM	15.2 µM and 3.7 µM	1.87 µM	18.9 µM and 3.61 µM	2.81 µM	18.9 µM and 10.8 µM	1.84 µM	12.8 µM and 3.41 µM	1.53 µM	18.6 µM and 2.95 µM	1.8 µM	13.8 µM and 5.44 µM
COc1cccc(/C=C2\COc3ccc(-c4ccccc4)cc3C2=O)c1	2.55 µM	6.42 µM	2.34 µM	9.41 µM	1.7 µM	4.72 µM	3.12 µM	8.39 µM	2.52 µM	10.3 µM	2.05 µM	4.12 µM	2.33 µM	7.49 µM	2.35 µM	5.03 µM	1.56 µM	3.05 µM	2.98 µM	9.12 µM
N#CC1c2ccccc2C=CN1C(=O)N(c1ccccc1)c1ccccc1 (stereo not drawn)	1.64 µM	3.63 µM	2 µM	4.36 µM	3.56 µM	11.5 µM	1.76 µM	3.66 µM	12.6 µM	25.2 µM	4.69 µM	17.9 µM	3 µM	10.8 µM	1.89 µM	3.58 µM	6.59 µM	19.3 µM	1.49 µM	3.12 µM
N=c1c2c(=N)n3c(nc2nc2n1-c1ccccc1Sc1ccccc1-2)sc1cc(Cl)ccc13	1.94 µM	> 100 µM	0.517 µM	4.15 µM	3.43 µM	> 100 µM	3.51 µM	35.4 µM	1.82 µM	9.52 µM	5.07 µM	30.6 µM	2.33 µM	32.6 µM	3.64 µM	> 100 µM	1.84 µM	6.79 µM	1.29 µM	7.68 µM
Cn1c(-c2c(N)n(CCCN3CCOCC3)c3nc(C#N)c(C#N)nc23)nc2ccccc21	7.52 µM	> 49.6 µM	2.73 µM	49.8 µM	–	> 72.4 µM	> 100 µM	> 100 µM	19.6 µM	> 58.1 µM	1.85 µM	7 µM	8.85 µM	> 80.2 µM	32.7 µM	97.3 µM	9.7 µM	> 63.8 µM	6.36 µM	55.6 µM
CN(CC(=O)N(Cc1ccc(C2CCCCC2)cc1)c1ccc(C(=O)O)cc1)S(=O)(=O)c1c(F)c(F)c(F)c(F)c1F	1.93 µM	4.31 µM	2.11 µM	4.02 µM	2.01 µM	4.11 µM	2.08 µM	4.46 µM	15.2 µM	29.4 µM	1.69 µM	3.26 µM	2.22 µM	4.88 µM	2.75 µM	10.5 µM	1.86 µM	3.31 µM	1.91 µM	4.73 µM
Cn1ncc(Cl)c1-c1cc(C(=O)N[C@H](CN)Cc2ccc(F)c(F)c2)oc1Cl	1.9 µM and 0.87 µM	14.2 µM and > 5.2 µM	0.139 µM and 0.191 µM	2.42 µM and 1.42 µM	1.15 µM and 0.346 µM	15 µM and > 10 µM	0.0268 µM and 0.0201 µM	3.62 µM and 1.43 µM	0.145 µM and 0.111 µM	5.04 µM and 3.27 µM	0.161 µM and 0.121 µM	3.22 µM and 2.14 µM	3.48 µM and 1.69 µM	17.4 µM and > 10 µM	0.961 µM and 0.203 µM	8.74 µM and 3.92 µM	0.289 µM and 0.171 µM	13.5 µM and > 9.51 µM	0.97 µM and 0.36 µM	11.7 µM and > 7.68 µM
